Results published in publication PMC5218480 (PLoS ONE, 2017).

Tested on: MV-4-11 cells
Experiment: Gene expression microarray analysis (Affymetrix PrimeView) and GSEA
Type: cell-based, human
Set-up: RFU PODN (11730768_x_at) / Fold change /veh PODN (11730768_x_at) / RFU LINC00158 (11744669_a_at) / Fold change /veh LINC00158 (11744669_a_at) / RFU DUSP10 (11751237_a_at) / Fold change /veh DUSP10 (11751237_a_at) / RFU ID3 (11757404_x_at) / Fold change /veh ID3 (11757404_x_at) / RFU PLEKHG5 (11737974_s_at) / Fold change /veh PLEKHG5 (11737974_s_at) / RFU LRRC4B (11730491_at) / Fold change /veh LRRC4B (11730491_at) / RFU GIMAP4 (11747438_a_at) / Fold change /veh GIMAP4 (11747438_a_at) / RFU KRT8 (11758183_x_at) / Fold change /veh KRT8 (11758183_x_at) / RFU CNN1 (11734310_a_at) / Fold change /veh CNN1 (11734310_a_at) / RFU VPS37D (11726825_at) / Fold change /veh VPS37D (11726825_at) / RFU C10orf10 (11716522_x_at) / Fold change /veh C10orf10 (11716522_x_at) / RFU KIR2DL2 /// KIR2DL4 /// KIR2DL5A /// KIR2DL5B /// KIR2DS1 /// KIR2DS2 /// KIR2DS3 /// KIR2DS4 /// KIR3DL3 /// KIR3DL3 /// KIR3DS1 (11738374_at) / Fold change /veh KIR2DL2 /// KIR2DL4 /// KIR2DL5A /// KIR2DL5B /// KIR2DS1 /// KIR2DS2 /// KIR2DS3 /// KIR2DS4 /// KIR3DL3 /// KIR3DL3 /// KIR3DS1 (11738374_at) / RFU C1QL1 (11718748_at) / Fold change /veh C1QL1 (11718748_at) / RFU TMPRSS4 (11747572_a_at) / Fold change /veh TMPRSS4 (11747572_a_at) / RFU HAMP (11756126_x_at) / Fold change /veh HAMP (11756126_x_at) / RFU RNFT2 (11725882_a_at) / Fold change /veh RNFT2 (11725882_a_at) / RFU NR4A2 (11747474_a_at) / Fold change /veh NR4A2 (11747474_a_at) / RFU ABCC12 (11746883_a_at) / Fold change /veh ABCC12 (11746883_a_at) / RFU TMEM136 (11760407_x_at) / Fold change /veh TMEM136 (11760407_x_at) / RFU CLDN22 /// WWC2 (11732394_at) / Fold change /veh CLDN22 /// WWC2 (11732394_at) / RFU HLA-DPB1 (11760878_x_at) / Fold change /veh HLA-DPB1 (11760878_x_at) / RFU SPINT1 (11716480_a_at) / Fold change /veh SPINT1 (11716480_a_at) / RFU GAP43 (11754022_s_at) / Fold change /veh GAP43 (11754022_s_at) / RFU A4GNT (11735810_at) / Fold change /veh A4GNT (11735810_at) / RFU PRB3 (11715151_x_at) / Fold change /veh PRB3 (11715151_x_at) / RFU TUBB4B (11761932_at) / Fold change /veh TUBB4B (11761932_at) / RFU CAPN14 (11732068_a_at) / Fold change /veh CAPN14 (11732068_a_at) / RFU TMCC2 (11721928_a_at) / Fold change /veh TMCC2 (11721928_a_at) / RFU IRGQ (11745062_a_at) / Fold change /veh IRGQ (11745062_a_at) / RFU FAM174B (11720279_a_at) / Fold change /veh FAM174B (11720279_a_at) / RFU TMPRSS4 (11748680_a_at) / Fold change /veh TMPRSS4 (11748680_a_at) / RFU FAM212B (11763350_a_at) / Fold change /veh FAM212B (11763350_a_at) / RFU PLEKHG5 (11743358_a_at) / Fold change /veh PLEKHG5 (11743358_a_at) / RFU ZSCAN30 (11745921_a_at) / Fold change /veh ZSCAN30 (11745921_a_at) / RFU CMKLR1 (11741424_a_at) / Fold change /veh CMKLR1 (11741424_a_at) / RFU LOC101060620 /// MAPK8IP1 (11723275_at) / Fold change /veh LOC101060620 /// MAPK8IP1 (11723275_at) / RFU SPTSSB (11747773_x_at) / Fold change /veh SPTSSB (11747773_x_at) / RFU PRSS12 (11739890_at) / Fold change /veh PRSS12 (11739890_at) / RFU BIN1 (11741810_x_at) / Fold change /veh BIN1 (11741810_x_at) / RFU WNT11 (11732464_a_at) / Fold change /veh WNT11 (11732464_a_at) / RFU C10orf10 (11716521_a_at) / Fold change /veh C10orf10 (11716521_a_at) / RFU C5orf56 (11738089_at) / Fold change /veh C5orf56 (11738089_at) / RFU CYB561 (11721691_x_at) / Fold change /veh CYB561 (11721691_x_at) / RFU ANKRD19P (11752326_a_at) / Fold change /veh ANKRD19P (11752326_a_at) / RFU OR2T12 /// OR2T33 /// OR2T8 (11738714_s_at) / Fold change /veh OR2T12 /// OR2T33 /// OR2T8 (11738714_s_at) / RFU VCAN (11748164_a_at) / Fold change /veh VCAN (11748164_a_at) / RFU JSRP1 (11732532_at) / Fold change /veh JSRP1 (11732532_at) / RFU KRTAP10-11 (11738290_x_at) / Fold change /veh KRTAP10-11 (11738290_x_at) / RFU MYO3A (11730013_a_at) / Fold change /veh MYO3A (11730013_a_at) / RFU EBF3 (11725865_a_at) / Fold change /veh EBF3 (11725865_a_at) / RFU CAMK2N1 (11719241_x_at) / Fold change /veh CAMK2N1 (11719241_x_at) / RFU C5orf56 (11738088_a_at) / Fold change /veh C5orf56 (11738088_a_at) / RFU OLFML3 (11715873_a_at) / Fold change /veh OLFML3 (11715873_a_at) / RFU LOC100653217 /// NTM (11731650_a_at) / Fold change /veh LOC100653217 /// NTM (11731650_a_at) / RFU MAPK11 (11762145_a_at) / Fold change /veh MAPK11 (11762145_a_at) / RFU FIZ1 (11724087_x_at) / Fold change /veh FIZ1 (11724087_x_at) / RFU OASL (11726364_x_at) / Fold change /veh OASL (11726364_x_at) / RFU SOX15 (11748057_x_at) / Fold change /veh SOX15 (11748057_x_at) / RFU CD79A (11719716_a_at) / Fold change /veh CD79A (11719716_a_at) / RFU HIST1H1D (11736915_at) / Fold change /veh HIST1H1D (11736915_at) / RFU CASKIN2 (11723855_a_at) / Fold change /veh CASKIN2 (11723855_a_at) / RFU LOC730098 (11760151_x_at) / Fold change /veh LOC730098 (11760151_x_at) / RFU OR4N2 (11742367_at) / Fold change /veh OR4N2 (11742367_at) / RFU PRRT2 (11749266_a_at) / Fold change /veh PRRT2 (11749266_a_at) / RFU SNX32 (11753110_a_at) / Fold change /veh SNX32 (11753110_a_at) / RFU CDHR5 (11726645_a_at) / Fold change /veh CDHR5 (11726645_a_at) / RFU RCAN1 (11760418_a_at) / Fold change /veh RCAN1 (11760418_a_at) / RFU FAM167A (11723789_a_at) / Fold change /veh FAM167A (11723789_a_at) / RFU FAM26E (11764081_at) / Fold change /veh FAM26E (11764081_at) / RFU ISYNA1 (11749810_s_at) / Fold change /veh ISYNA1 (11749810_s_at) / RFU ACY1 (11761880_at) / Fold change /veh ACY1 (11761880_at) / RFU 11764098_at / Fold change /veh 11764098_at / RFU SAMD14 (11745864_x_at) / Fold change /veh SAMD14 (11745864_x_at) / RFU NPB (11741838_a_at) / Fold change /veh NPB (11741838_a_at) / RFU TMPRSS6 (11731388_a_at) / Fold change /veh TMPRSS6 (11731388_a_at) / RFU KRTAP10-2 (11738614_at) / Fold change /veh KRTAP10-2 (11738614_at) / RFU ARHGAP8 /// PRR5-ARHGAP8 (11727945_x_at) / Fold change /veh ARHGAP8 /// PRR5-ARHGAP8 (11727945_x_at) / RFU KRTAP5-7 /// NADSYN1 (11734609_at) / Fold change /veh KRTAP5-7 /// NADSYN1 (11734609_at) / RFU RASL12 (11751679_a_at) / Fold change /veh RASL12 (11751679_a_at) / RFU CDKN2B (11736163_a_at) / Fold change /veh CDKN2B (11736163_a_at) / RFU PRF1 (11729649_at) / Fold change /veh PRF1 (11729649_at) / RFU, ZNF638 /// ZNF638-IT1 / Fold change vs veh, ZNF638 /// ZNF638-IT1 / RFU, PANK3 / Fold change vs veh, PANK3 / RFU, SH3YL1 / Fold change vs veh, SH3YL1 / RFU, ZEB2 / Fold change vs veh, ZEB2 / RFU, NRIP1 / Fold change vs veh, NRIP1 / RFU, PTTG1IP / Fold change vs veh, PTTG1IP / RFU, CAPN2 / Fold change vs veh, CAPN2 / RFU, MED14 / Fold change vs veh, MED14 / RFU, SNORA58 / Fold change vs veh, SNORA58 / RFU, C1orf63 / Fold change vs veh, C1orf63 / RFU, LRRFIP1 / Fold change vs veh, LRRFIP1 / RFU, NDUFAF7 / Fold change vs veh, NDUFAF7 / RFU, SLC12A2 / Fold change vs veh, SLC12A2 / RFU, IBTK / Fold change vs veh, IBTK / RFU, ESF1 / Fold change vs veh, ESF1 / Fold change vs veh, TMEM50B / RFU, TAOK1 / Fold change vs veh, TAOK1 / RFU, ACBD3 / Fold change vs veh, ACBD3 / RFU, TMA16 / Fold change vs veh, TMA16 / RFU, RWDD3 / Fold change vs veh, RWDD3 / RFU, BCAT1 / Fold change vs veh, BCAT1 / RFU, EDEM3 / Fold change vs veh, EDEM3 / RFU, TMEM33 / Fold change vs veh, TMEM33 / RFU, WDR75 / Fold change vs veh, WDR75 / RFU, AHCTF1 / Fold change vs veh, AHCTF1 / RFU, TFRC / Fold change vs veh, TFRC / RFU, ZDHHC17 / Fold change vs veh, ZDHHC17 / RFU, NOM1 / Fold change vs veh, NOM1 / RFU, ARL8B / Fold change vs veh, ARL8B / RFU, ZBTB11 / Fold change vs veh, ZBTB11 / RFU, TAMM41 / Fold change vs veh, TAMM41 / RFU, KIAA1704 /// LOC100996395 / Fold change vs veh, KIAA1704 /// LOC100996395 / RFU, ING1 / Fold change vs veh, ING1 / RFU, TRMT61B / Fold change vs veh, TRMT61B / RFU, FUBP3 / Fold change vs veh, FUBP3 / RFU, TP53 / Fold change vs veh, TP53 / RFU, TNKS2 / Fold change vs veh, TNKS2 / RFU, ZFP14 / Fold change vs veh, ZFP14 / RFU, ACTR2 / Fold change vs veh, ACTR2 / RFU, PPP3R1 / Fold change vs veh, PPP3R1 / RFU, PIK3R1 / Fold change vs veh, PIK3R1 / RFU, HNRNPA1 / Fold change vs veh, HNRNPA1 / RFU, RNF170 / Fold change vs veh, RNF170 / RFU, ZNF28 / Fold change vs veh, ZNF28 / RFU, RNGTT / Fold change vs veh, RNGTT / RFU, OGT / Fold change vs veh, OGT / RFU, BRD1 / Fold change vs veh, BRD1 / RFU, MARS / Fold change vs veh, MARS / RFU, ZNF655 / Fold change vs veh, ZNF655 / RFU, FAHD1 / Fold change vs veh, FAHD1 / RFU, BDP1 / Fold change vs veh, BDP1 / RFU, LRRCC1 / Fold change vs veh, LRRCC1 / RFU, ARID1A / Fold change vs veh, ARID1A / RFU, ZNF146 / Fold change vs veh, ZNF146 / RFU, ZNF330 / Fold change vs veh, ZNF330 / RFU, GPN3 / Fold change vs veh, GPN3 / RFU, C9orf123 / Fold change vs veh, C9orf123 / RFU, N4BP2L2 / Fold change vs veh, N4BP2L2 / RFU, ARFIP1 / Fold change vs veh, ARFIP1 / RFU, FAM179B / Fold change vs veh, FAM179B / RFU, BCL10 / Fold change vs veh, BCL10 / RFU, UHRF1BP1L / Fold change vs veh, UHRF1BP1L / RFU, BET1 / Fold change vs veh, BET1 / RFU, CNOT2 / Fold change vs veh, CNOT2 / RFU, ZNF268 / Fold change vs veh, ZNF268 / Fold change vs veh, ZNF507 / RFU, DGCR2 / Fold change vs veh, DGCR2 / RFU, WDSUB1 / Fold change vs veh, WDSUB1 / Fold change vs veh, HSP90B1 /// MIR3652 / RFU, ADSS / Fold change vs veh, ADSS / RFU, GK / Fold change vs veh, GK / RFU, ZNF148 / Fold change vs veh, ZNF148 / RFU, TAF9 / Fold change vs veh, TAF9 / RFU, SLC1A5 / Fold change vs veh, SLC1A5 / RFU, SLMO2 / Fold change vs veh, SLMO2 / RFU, ABCC4 / Fold change vs veh, ABCC4 / RFU, LOC101060439 /// RAP1B / Fold change vs veh, LOC101060439 /// RAP1B / RFU, RFX7 / Fold change vs veh, RFX7 / RFU, GTPBP10 / Fold change vs veh, GTPBP10 / RFU, CNEP1R1 / Fold change vs veh, CNEP1R1 / RFU, BIVM-ERCC5 /// ERCC5 / Fold change vs veh, BIVM-ERCC5 /// ERCC5 / RFU, ILF3 / Fold change vs veh, ILF3 / RFU 11762660_at / Fold change /veh 11762660_at / RFU VCAN (11757783_s_at) / Fold change /veh VCAN (11757783_s_at) / RFU DDX43 (11728927_at) / Fold change /veh DDX43 (11728927_at) / RFU KRT8 (11758188_x_at) / Fold change /veh KRT8 (11758188_x_at) / RFU NKD1 (11759106_at) / Fold change /veh NKD1 (11759106_at) / RFU SRD5A1 (11742802_a_at) / Fold change /veh SRD5A1 (11742802_a_at) / RFU TPSAB1 /// TPSB2 (11721975_s_at) / Fold change /veh TPSAB1 /// TPSB2 (11721975_s_at) / RFU GSTM3 (11746129_a_at) / Fold change /veh GSTM3 (11746129_a_at) / RFU IL23R (11737362_x_at) / Fold change /veh IL23R (11737362_x_at) / RFU TMEM51 (11727254_a_at) / Fold change /veh TMEM51 (11727254_a_at) / RFU PIWIL2 (11732686_x_at) / Fold change /veh PIWIL2 (11732686_x_at) / RFU ORM1 (11744905_x_at) / Fold change /veh ORM1 (11744905_x_at) / RFU CCDC152 (11743942_at) / Fold change /veh CCDC152 (11743942_at) / RFU ECM1 (11717891_a_at) / Fold change /veh ECM1 (11717891_a_at) / RFU IL23R (11748794_a_at) / Fold change /veh IL23R (11748794_a_at) / RFU TNFAIP8L3 (11732012_x_at) / Fold change /veh TNFAIP8L3 (11732012_x_at) / RFU MBOAT4 (11741988_at) / Fold change /veh MBOAT4 (11741988_at) / RFU 11764193_at / Fold change /veh 11764193_at / RFU TMEM53 (11763286_at) / Fold change /veh TMEM53 (11763286_at) / RFU MAGEB2 (11727129_at) / Fold change /veh MAGEB2 (11727129_at) / RFU TMEM200A (11744735_a_at) / Fold change /veh TMEM200A (11744735_a_at) / RFU CCDC152 (11751479_a_at) / Fold change /veh CCDC152 (11751479_a_at) / RFU FAM211A (11726209_a_at) / Fold change /veh FAM211A (11726209_a_at) / RFU RGS16 (11746705_a_at) / Fold change /veh RGS16 (11746705_a_at) / RFU VCAN (11755009_s_at) / Fold change /veh VCAN (11755009_s_at) / RFU RHOB (11743442_s_at) / Fold change /veh RHOB (11743442_s_at) / RFU RGS16 (11720943_a_at) / Fold change /veh RGS16 (11720943_a_at) / RFU RGS16 (11720944_at) / Fold change /veh RGS16 (11720944_at) / RFU, VPS4B / Fold change vs veh, VPS4B / RFU, CREB1 / Fold change vs veh, CREB1 / RFU, DNAJC13 / Fold change vs veh, DNAJC13 / RFU, GNAQ / Fold change vs veh, GNAQ / RFU, CDK5R1 / Fold change vs veh, CDK5R1 / RFU, ZRANB3 / Fold change vs veh, ZRANB3 / RFU, CUL4A / Fold change vs veh, CUL4A / RFU, CCNY / Fold change vs veh, CCNY / RFU, UFL1 / Fold change vs veh, UFL1 / RFU, COG3 / Fold change vs veh, COG3 / RFU, DIAPH2 / Fold change vs veh, DIAPH2 / RFU, SKA2 / Fold change vs veh, SKA2 / RFU, AFF3 / Fold change vs veh, AFF3 / RFU, LMF1 / Fold change vs veh, LMF1 / RFU, IPO11 / Fold change vs veh, IPO11 / RFU, DFFB / Fold change vs veh, DFFB / RFU, FOXP1 / Fold change vs veh, FOXP1 / RFU, CARD8 / Fold change vs veh, CARD8 / RFU, STRN3 / Fold change vs veh, STRN3 / RFU, ADK / Fold change vs veh, ADK / RFU, RASSF2 / Fold change vs veh, RASSF2 / RFU, WIPF1 / Fold change vs veh, WIPF1 / RFU, LARP1B / Fold change vs veh, LARP1B / RFU, RASA1 / Fold change vs veh, RASA1 / RFU, RB1 / Fold change vs veh, RB1 / RFU, PPFIA1 / Fold change vs veh, PPFIA1 / RFU, MAT2A / Fold change vs veh, MAT2A / RFU, CCT5 / Fold change vs veh, CCT5 / RFU, WDR92 / Fold change vs veh, WDR92 / RFU, CUX1 / Fold change vs veh, CUX1 / RFU, TTC7A / Fold change vs veh, TTC7A / RFU, TMEM135 / Fold change vs veh, TMEM135 / RFU, DEPTOR / Fold change vs veh, DEPTOR / RFU, CPM / Fold change vs veh, CPM / RFU, DNAJB6 / Fold change vs veh, DNAJB6 / RFU, CACNA2D3 / Fold change vs veh, CACNA2D3 / RFU, DTX4 / Fold change vs veh, DTX4 / RFU, TFCP2 / Fold change vs veh, TFCP2 / RFU, GMCL1 /// GMCL1P1 / Fold change vs veh, GMCL1 /// GMCL1P1 / RFU, AEBP2 / Fold change vs veh, AEBP2 / RFU, SNHG1 /// SNORD22 /// SNORD25 /// SNORD26 /// SNORD27 /// SNORD28 /// SNORD29 /// SNORD31 / Fold change vs veh, SNHG1 /// SNORD22 /// SNORD25 /// SNORD26 /// SNORD27 /// SNORD28 /// SNORD29 /// SNORD31 / Fold change (Aza/veh), C12orf56 (ProbeSet 11735607_a_at) / Fold change (ACY-1035/veh), C12orf56 (ProbeSet 11735607_a_at) / Fold change (Aza/veh), FGFR1OP (ProbeSet 11751329_s_at) / Fold change (ACY-1035/veh), FGFR1OP (ProbeSet 11751329_s_at) / Fold change (Aza/veh), VPS36 (ProbeSet 11739960_a_at) / Fold change (ACY-1035/veh), VPS36 (ProbeSet 11739960_a_at) / RFU SYPL1 (11715823_x_at) / Fold change /veh SYPL1 (11715823_x_at) / RFU IGFBP7 (11715501_s_at) / Fold change /veh IGFBP7 (11715501_s_at) / RFU REEP3 (11722064_at) / Fold change /veh REEP3 (11722064_at) / RFU IGLL1 (11728026_x_at) / Fold change /veh IGLL1 (11728026_x_at): dose or concentration left out as unconfirmed
Details: MV-4-11 cells, 48 hours

With Nc1ncn([C@@H]2O[C@H](CO)[C@@H](O)[C@H]2O)c(=O)n1 [azacitidine] the “Fold change /veh SOX15 (11748057_x_at)” value was 1.06.
